This experiment deals with TEAD-dependent transcription (12XGTIIC TEAD response element luciferase reporter) in MSTO-211H cells. In words: TEAD-dependent transcription cell-based luciferase reporter assay in MSTO-211H+12XGTIIC cells. Conditions: Homo sapiens; MSTO-211H+12XGTIIC reporter cells, 24 hours compound incubation, luminescence normalized to cell viability signal, geometric mean; read-out: MSTO-211H GMean IC50 (uM) Cell Assay Reporter Cell Variant: TEAD. In a few lines:
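Stable 12×GTIIC-luciferase clone seeded 1×10^4 cells/well overnight, then exposed to compound serial dilutions for 24 h at 37° C. ONE-Glo luminescence normalized to CellTiter-Fluor viability signal; % inhibition relative to DMSO and 20 μM K-975 controls. IC50 by nonlinear regression.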

SMILES strings stand for the structures.

In the case of `O=C(NC1CC1)N1CCC(C(=O)N2CCc3c(cccc3Nc3ccc(C(F)(F)F)c(F)c3)C2)C1` (stereo not drawn) [Compound O-0098, N-cyclopropyl-3-(5-((3-fluoro-4-(trifluoromethyl)phenyl)amino)-1,2,3,4-tetrahydroisoquinoline-2-carbonyl)pyrrolidine-1-carboxamide], the 50% inhibitory concentration (IC50) (usually the midpoint of a concentration-inhibition curve) lay in the range of 0.001 to 10 µM.

As to `Nc1cccc(C(=O)N2CCc3c(cccc3Nc3ccc(C(F)(F)F)cc3)C2)n1` [Compound O-0029, (6-aminopyridin-2-yl)(5-((4-(trifluoromethyl)phenyl)amino)-3,4-dihydroisoquinolin-2(1H)-yl)methanone], the IC50 was in the range of 10 to 100 µM.

For the compound `Cn1cncc1CC(=O)N1CCc2c(cccc2Nc2ccc(C(F)(F)F)cc2)C1` [Compound O-0002, 2-(1-methyl-1H-imidazol-5-yl)-1-(5-((4-(trifluoromethyl)phenyl)amino)-3,4-dihydroisoquinolin-2(1H)-yl)ethan-1-one], the IC50 lay within 0.001 to 10 µM.

Consider `O=C(Cc1cn[nH]c1)N1CCc2c(cccc2Nc2ccc(C(F)(F)F)nc2)C1` [Compound O-0059, 2-(1H-pyrazol-4-yl)-1-(5-((6-(trifluoromethyl)pyridin-3-yl)amino)-3,4-dihydroisoquinolin-2(1H)-yl)ethan-1-one], for which the IC50 lay within 0.001 to 10 µM.

In the case of `CN(c1ccc(C(F)(F)F)cc1)c1cccc2c1CCN(C(=O)CCS(=O)(=O)C(F)(F)F)C2` [Compound O-0016, 1-(5-(methyl(4-(trifluoromethyl)phenyl)amino)-3,4-dihydroisoquinolin-2(1H)-yl)-3-((trifluoromethyl)sulfonyl)propan-1-one], the IC50 is 0.001 to 10 µM.

For `Nc1ccnc(C(=O)N2CCc3c(cccc3Nc3ccc(C(F)(F)F)cc3)C2)c1` [Compound O-0030, (4-aminopyridin-2-yl)(5-((4-(trifluoromethyl)phenyl)amino)-3,4-dihydroisoquinolin-2(1H)-yl)methanone], the IC50 lay in the range of 0.001 to 10 µM.

As to `O=C(NC1CC1)N1CCC(C(=O)N2CCc3c(cccc3Nc3ccc(C(F)(F)F)cn3)C2)C1` (stereo not drawn) [Compound O-0092, N-cyclopropyl-3-(5-((5-(trifluoromethyl)pyridin-2-yl)amino)-1,2,3,4-tetrahydroisoquinoline-2-carbonyl)pyrrolidine-1-carboxamide], the IC50 fell in the range of 0.001 to 10 µM.

Consider `O=C(CCS(=O)(=O)C(F)(F)F)N1CCc2c(cccc2Nc2ccc(C(F)(F)F)cn2)C1` [Compound O-0021, 1-(5-((5-(trifluoromethyl)pyridin-2-yl)amino)-3,4-dihydroisoquinolin-2(1H)-yl)-3-((trifluoromethyl)sulfonyl)propan-1-one], for which the IC50 is 0.001 to 10 µM.

As to `CS(=O)(=O)c1nccc(C(=O)N2CCc3c(cccc3Nc3ccc(C(F)(F)F)cc3)C2)n1` [Compound O-0040, (2-(methylsulfonyl)pyrimidin-4-yl)(5-((4-(trifluoromethyl)phenyl)amino)-3,4-dihydroisoquinolin-2(1H)-yl)methanone], the IC50 lay within 0.001 to 10 µM.

On to `O=C(NCCC(=O)N1CCc2c(cccc2Nc2ccc(C(F)(F)F)cc2F)C1)NC1CC1` [Compound O-0193, 1-cyclopropyl-3-(3-(5-((2-fluoro-4-(trifluoromethyl)phenyl)amino)-3,4-dihydroisoquinolin-2(1H)-yl)-3-oxopropyl)urea], for which the 50% inhibitory concentration (IC50) was 0.001 to 10 µM.

In the case of `O=C(Nc1ccccn1)N1CCC(C(=O)N2CCc3c(cccc3Nc3ccc(C(F)(F)F)cn3)C2)C1` (stereo not drawn) [Compound O-0093, N-(pyridin-2-yl)-3-(5-((5-(trifluoromethyl)pyridin-2-yl)amino)-1,2,3,4-tetrahydroisoquinoline-2-carbonyl)pyrrolidine-1-carboxamide], the IC50 was in the range of 0.001 to 10 µM.

For the compound `O=C(CCS(=O)(=O)C(F)(F)F)N1CCc2c(cccc2Nc2ccc(C(F)(F)F)cc2)C1` [Compound O-0010, 1-(5-((4-(trifluoromethyl)phenyl)amino)-3,4-dihydroisoquinolin-2(1H)-yl)-3-((trifluoromethyl)sulfonyl)propan-1-one], the IC50 was in the range of 0.001 to 10 µM.

For the origin of these results see patent publication US20250368614A1, “COMPOUNDS AND METHODS FOR YAP/TEAD MODULATION AND INDICATIONS THEREFOR” (OPNA BIO SA, priority 2023, published 2025).
